Results on eleven compounds are retold here after article PMC3971757 (Journal of Natural Products, 2013).

Assay [1] has as its target NA of influenza virus A PR/8/34 (Influenza A virus, UniProt P03468). In words: biochemical. Further details: species or system influenza A virus H1N1 (A/PR/8/34). The note with it: 50% NA inhibitory concentration against influenza virus A PR/8/34.
Assay [2] deals with NA of influenza virus A HK/68 (Influenza A virus, UniProt Q91MA2). In words: biochemical. More on the design: species or system influenza A virus H3N2 (A/HongKong/68).
Assay [3] concerns NA of influenza virus A/PR/8/34 (H1N1). The note with it: FL-based NA inhibition assay; cited from earlier work.
Assay [4] deals with NA of influenza virus A/Jinan/15/90 (H3N2). The note with it: FL-based NA inhibition assay; cited from earlier work.
Assay [5] deals with NA of influenza virus B/Jiangsu/10/2003. The note with it: FL-based NA inhibition assay; cited from earlier work.
A further assay relates to NA of PR/8/34. The conditions noted are these: read-out: IC50 NA inhibition (PR/8/34); earlier study; cited from earlier work.

Chain of NA of influenza virus A PR/8/34 (P03468 whole entry, looked up): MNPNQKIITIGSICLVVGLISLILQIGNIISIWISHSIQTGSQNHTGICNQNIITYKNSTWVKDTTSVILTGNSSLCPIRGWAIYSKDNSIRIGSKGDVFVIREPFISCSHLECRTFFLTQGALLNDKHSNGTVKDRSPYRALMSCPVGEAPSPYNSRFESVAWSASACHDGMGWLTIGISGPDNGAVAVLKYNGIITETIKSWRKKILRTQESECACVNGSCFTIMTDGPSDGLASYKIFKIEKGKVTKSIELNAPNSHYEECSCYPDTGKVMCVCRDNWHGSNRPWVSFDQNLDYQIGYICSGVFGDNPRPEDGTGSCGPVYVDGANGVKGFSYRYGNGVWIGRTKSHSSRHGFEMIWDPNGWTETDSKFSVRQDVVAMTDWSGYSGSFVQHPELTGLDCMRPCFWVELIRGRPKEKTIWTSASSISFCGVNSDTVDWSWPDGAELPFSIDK
Chain of NA of influenza virus A HK/68 (Q91MA2 whole entry, looked up): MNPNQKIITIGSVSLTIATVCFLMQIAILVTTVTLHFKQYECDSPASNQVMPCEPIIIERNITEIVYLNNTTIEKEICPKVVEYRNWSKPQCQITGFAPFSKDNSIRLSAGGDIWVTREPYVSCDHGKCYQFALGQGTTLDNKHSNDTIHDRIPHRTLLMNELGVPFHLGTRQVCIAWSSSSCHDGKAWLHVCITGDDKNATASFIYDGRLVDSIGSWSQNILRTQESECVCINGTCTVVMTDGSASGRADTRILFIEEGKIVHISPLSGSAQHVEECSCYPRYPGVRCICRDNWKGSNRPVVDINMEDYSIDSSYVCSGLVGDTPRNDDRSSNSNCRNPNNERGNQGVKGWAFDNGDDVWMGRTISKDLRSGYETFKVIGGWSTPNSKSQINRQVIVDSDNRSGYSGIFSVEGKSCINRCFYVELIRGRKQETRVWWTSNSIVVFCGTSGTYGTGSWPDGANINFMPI

As to `CC(C)=CCc1c(O)ccc(C(=O)/C=C/c2cc(O)c3c(c2)C=CC(C)(C)O3)c1O` [Compound 1, (E)-1-[2,4-dihydroxy-3-(3-methyl-2-butenyl)phenyl]-3-(8-hydroxy-2,2-dimethyl-2H-1-benzopyran-6-yl)-2-propen-1-one], in assay [1], the IC50 was found to be 250 nM.

Regarding `CC1(C)C=Cc2c(ccc3c2OCC(O)C3)O1` (stereo not drawn) [Compound 2, 3,4-dihydro-8,8-dimethyl-2H,8H-benzo[1,2-b:3,4-b′]dipyran-3-ol], the IC50 turned out to be 12.4 ± 4.14 µM in assay [2] and 6470 ± 2590 nM in assay [1].

With `COc1ccc(-c2coc3cc(O)ccc3c2=O)cc1` [Compound 3, biochanin B], in assay [3], the “activity against the NA of influenza virus A/PR/8/34 (H1N1)” value is “weak activity”. In addition, the “activity against the NA of influenza virus A/Jinan/15/90 (H3N2)” value in assay [4] is recorded as “weak activity”. Also, in assay [5], the “activity against the NA of influenza virus B/Jiangsu/10/2003” value is “weak activity”. This compound showed an IC50 in assay [1] of 1370 ± 220 nM.

On to `CC(C)=CCc1cc([C@@H]2CC(=O)c3ccc(O)c(CC=C(C)C)c3O2)ccc1O` [Compound 4, glabrol], for which the IC50 in assay [2] came to 3.06 ± 1.21 µM; in assay [1], 510 nM.

Take `CC1(C)C=Cc2c(ccc(-c3coc4cc(O)ccc4c3=O)c2O)O1` [Compound 5, glabrone]: the IC50 in assay [2] is 5.34 ± 2.29 µM; in assay [1], 400 ± 170 nM.

As to `CC1(C)C=Cc2c(ccc([C@@H]3COc4c(ccc5c4C=CC(C)(C)O5)C3)c2O)O1` [Compound 6, hispaglabridin B], the results for the IC50 in assay [2] and in assay [1] were 2.85 ± 1.58 µM and 1110 ± 530 nM, respectively.

With `O=C1C[C@@H](c2ccc(O)cc2)Oc2cc(O)ccc21` [Compound 10, liquiritigenin], the IC50 in assay [1] is 2070 ± 370 nM.

For `O=C1C[C@@H](c2ccc(O[C@@H]3O[C@H](CO)[C@@H](O)[C@H](O)[C@H]3O)cc2)Oc2cc(O)ccc21` [Compound 11, liquiritin], in assay [3], the “activity against the NA of influenza virus A/PR/8/34 (H1N1)” value is “weak activity”. Also, the “activity against the NA of influenza virus A/Jinan/15/90 (H3N2)” value in assay [4] is reported as “weak activity”. In addition, the “activity against the NA of influenza virus B/Jiangsu/10/2003” value in assay [5] is reported as “weak activity”. Besides, in assay [1], the IC50 was 83100 ± 17800 nM.

On to `O=C1C[C@@H](c2ccc(O)cc2)Oc2cc(O[C@@H]3O[C@H](CO)[C@@H](O)[C@H](O)[C@H]3O)cc(O)c21` [Compound 12, prunin], for which the IC50 in assay [1] is 3000 ± 460 nM.

Take `C=CCc1ccc(O)c(-c2ccc(O)c(CC=C)c2)c1` [Honokiol, honokiol, reference compound]: the IC50 in assay [1] is 3010 nM.

With `O=C(CCc1ccccc1)C[C@@H]1C[C@@H](c2ccccc2)c2c(cc(/C=C/c3ccccc3)oc2=O)O1` [Katsumadain A, katsumadain A], in the assay with NA of PR/8/34, the IC50 was 1050 nM.
